Data set [1] in a line: Hygroscopicity and chemical stability of the salts. The class given is physicochemical. The text has this: The mono- and di-sodium salts, as well as the mono- and di-potassium salts and their hydrates are highly hygroscopic and chemically not stable compounds namely the compound of the formula (II) decomposes at the amide bond giving rise to decomposition products of formulae (IV) (FIG. 6) and (V) (FIG. 7).

In data set [2] the target is T1, cholecystokinin A (CCK-A) (Rattus norvegicus, UniProt P30551).
T1 construct: from tissue; host or cells: living rat (in vivo, oral dosing; gastric emptying)
T1 sequence (P30551 1-444): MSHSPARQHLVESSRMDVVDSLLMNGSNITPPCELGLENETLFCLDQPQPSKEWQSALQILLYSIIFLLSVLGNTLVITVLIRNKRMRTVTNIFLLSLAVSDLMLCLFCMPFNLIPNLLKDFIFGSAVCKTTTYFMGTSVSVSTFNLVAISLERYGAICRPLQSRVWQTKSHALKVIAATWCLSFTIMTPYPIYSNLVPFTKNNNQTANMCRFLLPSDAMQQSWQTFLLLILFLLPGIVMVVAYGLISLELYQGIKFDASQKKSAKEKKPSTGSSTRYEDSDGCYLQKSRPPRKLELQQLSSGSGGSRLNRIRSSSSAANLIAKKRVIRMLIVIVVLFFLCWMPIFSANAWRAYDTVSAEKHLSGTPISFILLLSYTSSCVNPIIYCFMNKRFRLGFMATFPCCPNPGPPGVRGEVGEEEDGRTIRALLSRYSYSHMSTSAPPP
Particulars: comparison in words; cited from earlier work.

Data on four compounds can be found in patent US20030176475A1, “Therapeutically useful new salts of cck inhibitors, process for the preparation thereof and pharmaceutical preparations containing them” (priority 2000, published 2003).

What is called melting point is the temperature of the solid-liquid transition. For the compound `CCNCC.COc1cc(-c2nc(NC(=O)c3cc4cc(C)cc(C)c4n3CC(=O)O)sc2CCC2CCCCC2)c(OC)cc1Cl`, the melting point was in the range of 209.4 to 210.7 °C.

The compound `COc1cc(-c2nc(NC(=O)c3cc4cc(C)cc(C)c4n3CC(=O)O)sc2CCC2CCCCC2)c(OC)cc1Cl.NCCO.O` (hydrate or solvate) returned a melting point of 166 to 167 °C.

Regarding `COc1cc(-c2nc(NC(=O)c3cc4cc(C)cc(C)c4n3CC(=O)O)sc2CCC2CCCCC2)c(OC)cc1Cl.NCCO` [ethanolamine salt, 2-[[[4-(4-chloro-2,5-dimethoxyphenyl)-5-(2-cyclohexylethyl)-2-thiazolyl]amino]carbonyl]-5,7-dimethyl-1H-indol-1-acetic Acid Ethanolamine Salt], the melting point is 208 to 210 °C. The hygroscopicity entry in data set [1] is on record as “non-hygroscopic”. Moreover, the chemical stability result in data set [1] (decomposition at the amide bond to products of formulae (IV) and (V)) is reported as “chemically stable”.

For `Nc1cc(Cl)nc(C(=O)[O-])c1Cl.[K+]` [potassium salt], the “ED50 of prior salts compared with the 34 μg/kg p.o. of the compound of the invention” value in data set [2] is “in the same order”.
